“And” between values parts separate entries of the source, which are not always exact repeats. Equal entries are not always repeated.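 96-well plates; 48 h exposure; 5 concentrations. Endpoints by linear interpolation between flanking doses. Not reached: highest tested concentration assigned. TGI: concentration producing complete growth inhibition.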 Where a SMILES comes first, the peptide text is derived from it. The star is where a group is joined. Cbz = O=C(OCc1ccccc1)*; Boc = CC(C)(C)OC(=O)*; OSu = O=C1CCC(=O)N1O*; Bn = c1ccc(C*)cc1

For this test, the system named is SF-295 CNS. Description: NCI tumour cell line growth inhibition, 48 h.
Molecule `O=c1c2cc(I)ccc2nc(-c2cccs2)n1O` yielded a TGI of over 100 µM. `C/C(Nc1ccc(Cl)cc1)=C1/CCOC1=O` displayed a TGI of over 100 µM. The molecule `CCOC(=O)c1cc2c3c(cc(OC)c2[nH]1)N(C(=O)OCC)CC3` displayed a TGI of over 100 µM. Next, `CC(C)(C)OC(=O)NC(Cc1ccc(OCc2ccccc2)cc1)C(=O)NC(CCCCNC(=O)OCc1ccccc1)C(=O)NC(CCCCNC(=O)OCc1ccccc1)C(=O)ON1C(=O)CCC1=O` (centres undefined) (Boc-Tyr(Bn)-Lys(Cbz)-Lys(Cbz)-OSu; configuration not given here): 72.1 µM; `Clc1cc2ncn(C3CCCCO3)c2cc1Cl` (centres undefined): over 100 µM; `O=C(NCc1ccccc1Cl)c1c(O)c2ccccc2[nH]c1=O`: over 100 µM.

As to `CC[C@@]12CCC(=S)N(CCSc3ccccc3)[C@@H]1c1c(n(S(=O)(=O)c3ccc(OC)cc3)c3ccccc13)CC2`, the TGI was over 100 µM. In the case of `CCCCCCCc1ccc(-c2nnc(N=Nc3ccc(OCCCCC)cc3)s2)s1`, the TGI was over 100 µM.

For the molecule `CCOC(=O)c1cn(CC)c2ccc3c(c2c1=O)S(=O)(=O)C=C3`, the TGI is over 100 µM. On to `COC1OC(C(=O)O)C2OC(C)(C)OC12` (centres undefined), for which the TGI is over 100 µM. Next, `COc1ccc2c(c1)CC[C@@H]1C2CC[C@]2(C)C(=C=CP(=O)(O)O)CCC12` (some centres undefined): over 100 µM. The value for `CCC(=C/[C@H](C)C/C=C/C(C)=C/[C@@H](C)C(=O)[C@@H](C)[C@H](O)[C@@H](C)CC)/C=C/[C@H]1CC=CC(=O)O1` was 1.48 µM and 13.8 µM. `CC(C)=CCCC1(C)C2COC(=O)C21` (centres undefined) showed a TGI of over 100 µM. Turning to `CC(NNC(=O)c1ccncc1)c1ccc(Cl)cc1Cl` (centres undefined), the TGI is over 100 µM. Next, `COc1ccc(N=Nc2c(N)nn3c(SC)c(C#N)c(N)nc23)cc1`: 39.5 µM; `O=C1C=C/C(=C/[C@H]2SSC=C[C@]23C=CC(=O)C3)C1`: over 100 µM; `C[n+]1c2ccccc2c(C(=O)Nc2ccc(S(=O)(=O)Nc3ncccn3)cc2)c2ccccc21`: over 100 µM. The value for `COc1cc(/C=C2/Oc3c(OC)cccc3C2=O)ccc1O` was over 100 µM.

On to `CSc1nc[nH]c1C(N)=S`, for which the TGI was over 100 µM.

`O=C1c2ccccc2C(=O)c2sc(Nc3cc(Cl)ccc3Cl)nc21` returned a TGI of 17.4 µM. `Cc1cc(C)n2c(nc3ccccc32)c1C#N` had a TGI of over 100 µM. The value for `CCCCCCCCCCCCC1N=C(N)NC2(CCCO2)C1C(=O)OC` (centres undefined) was 24.7 µM.

`COc1ccc(CC[N+]2(C)COc3cc4oc(=O)cc(C)c4cc3C2)cc1OC` (centres undefined) yielded a TGI of over 100 µM. For `COc1ccc(/C=N/Nc2nnc3c(n2)c2ccccc2c2nn(-c4ccccc4Cl)nc23)cc1`, the TGI is over 100 µM.

`CC1CCCN1CCCOC(=O)c1ccc(OC2C=CCCC2)cc1` (centres undefined) yielded a TGI of 37.9 µM. The value for `S=c1[nH]nc(CCCCCCCCc2n[nH]c(=S)o2)o1` was over 100 µM; that for `CN(C)C(=O)Oc1ccc(C(=S)Nc2ccccc2)cc1` was over 100 µM; that for `Cc1cc2c(cc1Cl)Sc1n[nH]c(=O)n1S2(=O)=O` was over 100 µM. As to `COc1cccc(CCCNC(=O)Cc2ccccc2CO)c1`, the TGI was over 100 µM. As to `c1ccc(Nc2nnc(CCCCCCCCc3nnc(Nc4ccccc4)o3)o2)cc1`, the TGI is over 100 µM. As to `S=c1[nH]n2c(COc3cc(Cl)c(OCc4nnc5sc(=S)[nH]n45)cc3Cl)nnc2s1`, the TGI is over 100 µM.

Molecule `Cc1cc(C)nc(NS(=O)(=O)c2ccc(Nc3c4ccccc4nc4ccc(C(=O)Nc5ccc(S(=O)(=O)N=C(N)N)cc5)cc34)cc2)n1` gave a TGI of over 100 µM. The molecule `COc1ccc(C23OCC(Cc4cc(OC)c(OC)cc42)C3CO)cc1OC` (centres undefined) showed a TGI of over 100 µM. `O=C1C2CC[C@@H]3C(=O)C(Cl)(Cl)[C@@H]3CCC2C1(Cl)Cl` (some centres undefined): the TGI is over 100 µM. On to `C=CCOC(=O)N1c2ccc(O)cc2[C@@]23O[C@@]24[C@@H]1C#C/C=C\C#C[C@]3(O)C(=O)C[C@@H]4C`, for which the TGI is over 100 µM. Molecule `CSc1nc(C)c2c(n1)N(c1ccc(Cl)cc1)CC2` had a TGI of over 100 µM. Consider `C=CCNC1=C2C[C@@H](C)C[C@@H](OC)[C@H](OC(=O)CCN(C)C)[C@H](C)/C=C(\C)[C@@H](OC(N)=O)[C@H](OC)/C=C\C=C(/C)C(=O)NC(=CC1=O)C2=O`, for which the TGI amounted to 12.3 µM.

Consider `O=S(=O)(O)c1cc(O)c(N=Nc2ccc3ccccc3c2O)c2ccccc12`, for which the TGI was over 100 µM. In turn, `O=C(O)CCC1NC(/C(=C/c2ccccc2O)NC(=O)c2ccccc2)OC1=O` (centres undefined) showed a TGI of over 100 µM.

The values above are taken from PubChem BioAssay (NCI).
